According to article PMC10856758, “New Dual Inhibitors of Tyrosyl-DNA Phosphodiesterase 1 and 2 Based on Deoxycholic Acid: Design, Synthesis, Cytotoxicity, and Molecular Modeling” (Molecules, 2024):
Like-named read-outs stand apart in the source and are kept apart here.

Legend:
TDP2 [1] = biological target: T1, TDP2 (Homo sapiens, UniProt O95551); set-up: method as in PMID 35011303; settings: at ~1 mM concentration; cited from earlier work
T1 sequence (O95551 1-362): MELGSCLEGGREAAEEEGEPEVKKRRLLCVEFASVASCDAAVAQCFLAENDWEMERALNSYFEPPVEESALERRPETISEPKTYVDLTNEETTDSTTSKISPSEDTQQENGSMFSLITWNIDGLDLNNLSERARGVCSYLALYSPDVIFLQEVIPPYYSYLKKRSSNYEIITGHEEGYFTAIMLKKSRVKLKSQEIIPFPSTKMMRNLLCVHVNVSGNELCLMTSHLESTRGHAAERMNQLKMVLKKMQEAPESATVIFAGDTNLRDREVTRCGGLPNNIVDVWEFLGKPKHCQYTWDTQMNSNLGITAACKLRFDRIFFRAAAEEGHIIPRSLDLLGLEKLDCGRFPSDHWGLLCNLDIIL

TDP1 [2] = biological target: T2, TDP1 (Homo sapiens, UniProt Q9NUW8); set-up: method as in PMID 33221302; settings: earlier DCA derivatives; cited from earlier work
TDP1 [3] = biological target: T2, TDP1; experiment: TDP1 activity, real-time fluorescence oligonucleotide biosensor (FAM/BHQ1); assay type: biochemical; settings: 1.5 nM TDP1, 50 nM biosensor
Excerpt: To detect TDP1 activity in real time, we used an oligonucleotide biosensor based on the ability of TDP1 to remove fluorophore quenchers from the 3’ end of DNA [29]. The hexadecamer oligonucleotide carried 5(6)-carboxyfluorescein (FAM) at the 5’ end as a fluorophore and Black Hole Quencher-1 (BHQ1) at the 3’ end as a fluorophore quencher. TDP1 inhibitors prevent the removal of fluorophore quenchers, resulting in a decrease in fluorescence intensity.
TDP1 activity was detected as described in [31]. We measured the fluorescence intensity after quencher cleavage via a fluorophore quencher–coupled DNA oligonucleotide […]. The reaction mixtures contained TDP1 buffer (50 mM Tris, HCl pH 8.0, 50 mM NaCl, and 7 mM β-mercaptoethanol), 50 nM biosensor, and different concentrations of inhibitors. The reaction was triggered by adding TDP1 to a final concentration of 1.5 nM. The fluorophore quencher–coupled DNA oligonucleotide was synthesized in the Laboratory of Nucleic Acid Chemistry at the Institute of Chemical Biology and Fundamental Medicine (Novosibirsk, Russia).
The reaction mixtures were incubated at room temperature in a 96-well plate, and fluorescence was measured using the POLARstar OPTIMA fluorimeter (BMG LABTECH, GmbH, Ortenberg, Germany) every 55 s during the linear phase (here, data from minute 0 to minute 8). […] Data calculation was carried out using the software MARS Data Analysis 2.0 (BMG LABTECH, Ortenberg, Germany).

TDP2 [4] = biological target: T1, TDP2; experiment: Gel-based TDP2 activity assay (removal of 5'-tyrosine, PAGE); assay type: biochemical; settings: for remaining activity at 500 µM: read-out: TDP2, % (residual activity of TDP2); for IC50: 200 nM TDP2, 100 nM substrate, 15 min 37 °C
Description: We investigated the activity against the TDP2 enzyme of compounds 3d–f and 4a–e at 500 μM (Table 1). The basis for testing TDP 2 was its ability to remove a tyrosine residue from the 5’ end of an oligonucleotide substrate. The TDP2 reaction products were separated in a polyacrylamide gel (PAGE) with formamide denaturation.
TDP2 activity was detected as described in [42]. We separated the products of the reaction of cleavage of the tyrosine residue from the 5′-end of the 3e FAM-labeled oligonucleotide in a polyacrylamide gel under denaturing conditions. […] The reaction mixtures contained TDP1 buffer ([…] Tris-HCl pH 8.0, 40 mM NaCl, 1 mM DTT, 0.05 mg/mL BSA (Sigma-Aldrich, St. Luis, MO, USA)), 100 nM oligonucleotide substrate, and inhibitors. The reaction was triggered by adding TDP2 to a final concentration of 200 nM.
The reaction mixtures were incubated for 15 min at 37 °C. The reaction products were analyzed using Typhoon FLA 9500 phosphorimager (GE Healthcare, Boston, MA, USA). Each experiment was carried out in three independent replicates. The data were analyzed with QuantityOne 4.6.7 software.

HeLa cells [5] = experiment: MTT cytotoxicity/antiproliferative assay; settings: low-toxicity concentration, preliminary experiments
Description: (§1) Topotecan (TOP1 inhibitor) and etoposide (TOP2 inhibitor) were used to study the effect combined with DCA derivatives on the metabolic activity of cells. […] Topotecan (0.5 µM) and etoposide (5 µM) were used at a concentration with low toxicity (>70% of living cells), selected based on preliminary experiments.
(§2) The cells were seeded in 96-well plates in quadruplicates at 3 × 10^3 cells/well. The cells were grown in Dulbecco’s Modified Eagle—Medium (DMEM) (AppliChem, Darmstadt, Germany) with Antibiotic-Antimycotic (100 IU/mL penicillin, 0.1 μg/mL streptomycin, 0.25 µg/mL amphotericin) (1×) (Gibco, Grand Island, NE, USA) and 10% of fetal bovine serum (Gibco, Grand Island, NE, USA) in a 5% CO2 atmosphere at 37 °C. After the formation of a 50% monolayer, tested compounds were added to the medium, and the cell culture was monitored for 72 h at 37 °C. DCA derivatives were dissolved in 100% DMSO and topotecan/etoposide in water. Control cells were grown in the presence of the same volume of DMSO, those cells with the investigated compound. […] (MTT) solution (10 μL, 5 mg/mL) were added to each well and the cells were incubated for an additional 2 h. Then, the medium was removed from the wells, and 100 μL of iso-propanol was added to dissolve blue formazan crystals formed within live cells; the optical density was measured at test and reference wavelengths (570 nm and 620 nm, respectively) using CLARIOstar fluorimeter (BMG LABTECH, GmbH, Ortenberg, Germany). The experiments were repeated at least three times.

[6] = MTT cytotoxicity/antiproliferative assay; settings: human, HeLa cells, HeLa CC50, 72 h of treatment, MTT assay
Description: as §1, §2

HeLa cells [7] = experiment: MTT assay, combination with topotecan or etoposide; assay type: cell-based, human; settings: with 0.5 μM topotecan or 5 µM etoposide
Description: Next, the ability of the selected compounds to enhance the cytotoxic effect of topotecan and etoposide on the HeLa cell line was studied. CC50 values (50% cytotoxic concentration) were also calculated for the test compounds in the presence of topotecan or etoposide at fixed concentrations. For evaluation, three independent MTT assays were performed as described above with test substances in combination with topotecan at a final concentration of 0.5 μM and etoposide at a final concentration of 5 μM per well.
Figure 2 The combined action of compounds 3d–e and 4d–e with 0.5 μM topotecan (Tpc, (A)) and 5 µM etoposide (Eto, (B)) on the survival of HeLa cells. The error bars show standard deviations.

in vitro = settings: human, HeLa CC50
Description: as §1, §2

HeLa cells [8] = settings: human, 72 h
Description: as §1, §2

T2 sequence (Q9NUW8 whole entry): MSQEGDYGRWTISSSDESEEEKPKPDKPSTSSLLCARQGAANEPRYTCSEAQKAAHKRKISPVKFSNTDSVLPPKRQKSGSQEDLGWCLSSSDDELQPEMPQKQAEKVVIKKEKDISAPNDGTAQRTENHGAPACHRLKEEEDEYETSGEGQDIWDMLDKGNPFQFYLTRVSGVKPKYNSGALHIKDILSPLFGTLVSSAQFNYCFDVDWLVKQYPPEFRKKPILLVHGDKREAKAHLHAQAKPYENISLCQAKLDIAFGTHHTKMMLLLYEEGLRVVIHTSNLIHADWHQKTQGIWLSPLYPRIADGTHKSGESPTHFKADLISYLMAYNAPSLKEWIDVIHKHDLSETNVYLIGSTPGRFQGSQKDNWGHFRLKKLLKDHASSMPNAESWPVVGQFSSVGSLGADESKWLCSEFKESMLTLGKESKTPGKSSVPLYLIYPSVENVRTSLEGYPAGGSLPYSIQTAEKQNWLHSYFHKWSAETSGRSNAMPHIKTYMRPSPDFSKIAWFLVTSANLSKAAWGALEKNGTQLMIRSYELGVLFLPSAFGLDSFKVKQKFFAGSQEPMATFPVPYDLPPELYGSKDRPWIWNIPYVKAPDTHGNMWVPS

Row | SMILES | IC50 (TDP1 [3]) [µM] | remaining activity at 500 µM (TDP2 [4]; at 500 µM compound) [%] | melting point | CC50 at 72 h (in vitro) [µM] | also measured
1 | CC(CCC(=O)NCCc1c[nH]c2ccccc12)C1CCC2C3CCC4CC(OCc5ccccc5)CCC4(C)C3CC(O)C12C (stereo not drawn) [3α-benzyloxy deoxycholic tryptamide] | – | – | – | – | TDP2 residual activity (TDP2 [1]): less than 50%; IC50 (TDP1 [2]): 0.24 µM; TDP1 IC50 (TDP1 [2]): submicromolar range
2 | CC(CCC(=O)O)C1CCC2C3CCC4CC(O)(CSc5ccncc5)CCC4(C)C3CC(O)C12C (stereo not drawn) [3a, 3β,12α-Dihydroxy-3α-((pyrydin-4-ylthio)methyl)-5β-cholan-24-oic Acid] | 22 ± 2 | 92 ± 3 | 119.6 °C (dec.) | – | –
3 | CC[C@@]1(O)C(=O)OCc2c1cc1n(c2=O)Cc2cc3c(CN(C)C)c(O)ccc3nc2-1 [Topotecan] | – | – | – | – | living cells (HeLa cells [5]; topotecan alone at 0.5 µM): > 70%; CC50 at 72 h [6]: 0.9 ± 0.1 µM
4 | COC(=O)CCC(C)C1CCC2C3CCC4CC(O)(CSc5nc6ccccc6s5)CCC4(C)C3CC(O)C12C (stereo not shown) [4e] | 0.63 ± 0.03 | ~49 | 74.5 °C (dec.) | > 75 | combined cytotoxic effect / cell survival under drug combinations (HeLa cells [7]): most noticeable combined cytotoxic effect with both topotecan and etoposide; CC50 (HeLa cells [8]): > 100 µM
5 | COC(=O)CCC(C)C1CCC2C3CCC4CC(O)(CSc5nc6ccccc6o5)CCC4(C)C3CC(O)C12C (stereo not shown) [4f] | 1.8 ± 0.5 | ≥ 100 | 75 °C (dec.) | – | –
6 | Cc1ccc2[nH]c(SCC3(O)CCC4(C)C(CCC5C4CC(O)C4(C)C(C(C)CCC(=O)O)CCC54)C3)nc2c1 (stereo not shown) [3d] | 25 ± 4 | ~25 | 188.9 °C (dec.) | 63 ± 6 | IC50 (TDP2 [4]): 250 ± 30 µM; TDP2, % (residual activity of TDP2) (TDP2 [4]; at 500 µM compound, 500 µM): 24 ± 5%
7 | COc1cc([C@@H]2c3cc4c(cc3[C@@H](O[C@@H]3O[C@@H]5CO[C@@H](C)O[C@H]5[C@H](O)[C@H]3O)[C@H]3COC(=O)[C@H]23)OCO4)cc(OC)c1O [Etoposide] | – | – | – | – | living cells (HeLa cells [5]; etoposide alone at 5 µM): > 70%; CC50 at 72 h [6]: 6.2 ± 0.6 µM
8 | CC(CCC(=O)O)C1CCC2C3CCC4CC(O)(CSc5nc[nH]n5)CCC4(C)C3CC(O)C12C (stereo not drawn) [3c, 3β,12α-Dihydroxy-3α-((1H-1,2,4-triazol-5-ylthio)methyl)-5β-cholan-24-oic Acid] | 32 ± 4 | ≥ 100 | 95.1 to 98.4 °C | – | –
9 | COC1CCC2(C)C(CCC3C2CC(OC)C2(C)C(C(C)CCC(=O)Nc4ccc(Br)cc4)CCC32)C1 (stereo not drawn) [3α,12α-bis-methoxy deoxycholic para-bromoanilide] | – | – | – | – | IC50 (TDP1 [2]): 0.27 µM; TDP1 IC50 (TDP1 [2]): submicromolar range
10 | CC(CCC(=O)O)C1CCC2C3CCC4CC(O)(CSc5nccn5C)CCC4(C)C3CC(O)C12C (stereo not drawn) [3b, 3β,12α-Dihydroxy-3α-((1-methyl-1H-imidazol-2-ylthio)methyl)-5β-cholan-24-oic Acid] | 30 ± 7 | ≥ 100 | 119.9 °C (dec.) | – | –
11 | COC(=O)CCC(C)C1CCC2C3CCC4CC(O)(CSc5nc6cc(C)ccc6[nH]5)CCC4(C)C3CC(O)C12C (stereo not shown) [4d] | 0.94 ± 0.04 | ~14 | 112.1 °C (dec.) | 50 ± 13 | IC50 (TDP2 [4]): 218 ± 7 µM
12 | CC(CCC(=O)O)C1CCC2C3CCC4CC(O)(CSc5nc6ccccc6s5)CCC4(C)C3CC(O)C12C (stereo not shown) [3e] | 14 ± 2 | ~2 | 106.2 °C (dec.) | 75 ± 13 | IC50 (TDP2 [4]): 76 ± 13 µM
